Measurements taken from patent US4988733A, “N-[1-(3-phenoxyphenyl)ethyl]acetohydroxamic acid compounds which are useful anti-inflammatory agents” (Burroughs Wellcome Co., priority 1987, dated 1991).
Where “and” joins values, the source holds several entries; their conditions need not be identical. Equal values may be shown once.

Legend:
[1] = Plasma concentration after administration to rabbits of 10 mg/kg PO; assay type: in vivo; settings: rabbit; for Cmax: read-out: Maximum plasma concentration; for half-life: read-out: time for plasma concentration to fall to 50% of maximum value obtained after administration (converted)
Experimental: A. Maximum plasma concentration obtained after administration to rabbits of 10 mg/kg PO and time for plasma concentration to fall to 50% of maximum value obtained after administration

[2] = tested on: stimulated LTB4 synthesis; assay: Stimulated LTB4 synthesis ex vivo after administration to rabbits of 10 mg/kg PO; assay type: in vivo
Experimental: B. Time for stimulated LTB4 synthesis ex vivo to return to 50% of original value after administration to rabbits of 10 mg/kg PO

[3] = molecular target: T1, 5-lipoxygenase (5-LO) (Homo sapiens, UniProt P09917); assay: In vitro inhibition of 5-lipoxygenase in homogenised leukocytes (LTB4 radioimmunoassay); assay type: biochemical; settings: homogenised leukocytes of aspirin-free volunteers, 5 μM arachidonic acid, 37° C., 5 minutes
T1 construct: The leukocytes were homogenised and 5 μM arachidonic acid added; from tissue; host or cells: homogenised blood leukocytes of normal aspirin-free volunteers
T1 sequence (P09917 1-674): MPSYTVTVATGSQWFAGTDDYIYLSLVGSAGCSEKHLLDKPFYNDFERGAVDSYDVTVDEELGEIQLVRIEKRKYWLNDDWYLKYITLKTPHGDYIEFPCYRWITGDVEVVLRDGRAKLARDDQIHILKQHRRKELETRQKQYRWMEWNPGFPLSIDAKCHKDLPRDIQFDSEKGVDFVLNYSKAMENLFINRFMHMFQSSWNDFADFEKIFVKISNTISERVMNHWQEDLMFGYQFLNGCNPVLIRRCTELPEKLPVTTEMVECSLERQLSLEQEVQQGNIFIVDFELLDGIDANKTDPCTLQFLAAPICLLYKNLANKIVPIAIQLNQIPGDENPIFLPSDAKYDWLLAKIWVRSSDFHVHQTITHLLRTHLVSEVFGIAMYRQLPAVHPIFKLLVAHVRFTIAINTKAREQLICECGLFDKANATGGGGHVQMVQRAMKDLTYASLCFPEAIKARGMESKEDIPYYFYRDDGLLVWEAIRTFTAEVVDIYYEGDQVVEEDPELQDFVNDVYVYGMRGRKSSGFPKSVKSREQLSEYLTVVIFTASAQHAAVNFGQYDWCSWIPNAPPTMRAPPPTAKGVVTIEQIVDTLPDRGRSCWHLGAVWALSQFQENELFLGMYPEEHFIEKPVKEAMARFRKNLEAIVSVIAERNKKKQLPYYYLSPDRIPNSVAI
Experimental: (§1) C. In vitro inhibition of 5-lipoxygenase (5-LO) and cyclo-oxygenase (CO) Blood from normal aspirin-free volunteers was centrifuged to separate leukocytes from red cells and platelets. The leukocytes were homogenised and 5 μM arachidonic acid added, followed by incubation at 37° C. for 5 minutes. The reaction was stopped by boiling and radioimmunoassays conducted for LTB4 and TXB2. Results were calculated as IC50 (μM) activity against each enzyme.

[4] = molecular target: T2, cyclo-oxygenase (CO) (Homo sapiens, UniProt P23219); assay: In vitro inhibition of cyclo-oxygenase in homogenised leukocytes (TXB2 radioimmunoassay); assay type: biochemical; settings: homogenised leukocytes of aspirin-free volunteers, 5 μM arachidonic acid, 37° C., 5 minutes
T2 construct: The leukocytes were homogenised and 5 μM arachidonic acid added; from tissue; host or cells: homogenised blood leukocytes of normal aspirin-free volunteers
T2 sequence (P23219 24-599): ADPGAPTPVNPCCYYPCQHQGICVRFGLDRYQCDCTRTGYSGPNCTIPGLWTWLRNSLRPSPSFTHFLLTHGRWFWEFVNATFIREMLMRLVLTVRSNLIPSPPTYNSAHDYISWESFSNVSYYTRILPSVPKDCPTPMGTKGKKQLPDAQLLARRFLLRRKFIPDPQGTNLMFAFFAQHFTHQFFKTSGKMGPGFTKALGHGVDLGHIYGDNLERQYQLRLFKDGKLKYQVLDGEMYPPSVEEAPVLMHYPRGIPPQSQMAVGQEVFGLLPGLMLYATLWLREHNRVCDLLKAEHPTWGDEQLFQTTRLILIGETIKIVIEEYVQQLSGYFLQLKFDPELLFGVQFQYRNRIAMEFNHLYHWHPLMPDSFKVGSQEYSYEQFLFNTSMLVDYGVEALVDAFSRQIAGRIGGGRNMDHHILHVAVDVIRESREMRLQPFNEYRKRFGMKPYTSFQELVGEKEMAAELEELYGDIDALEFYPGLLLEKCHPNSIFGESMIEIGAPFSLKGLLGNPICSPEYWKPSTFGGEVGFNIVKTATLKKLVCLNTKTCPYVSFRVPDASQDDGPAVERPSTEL
Experimental: as §1

| Cmax [1] [ng/mL] | half-life [1] [h] | IC50 [3] | IC50 [4] [nM] | Compound | Time for stimulated LTB4 synthesis ex vivo to return to 50% of original value [2] [h] |
| --- | --- | --- | --- | --- | --- |
| 710 | > 24 | 10 nM | 180 | CC(=O)N(O)C(C)/C=C/c1cccc(Oc2ccc(Br)cc2)c1 (stereo not drawn) [(E)-N-{1-Methyl-3-[3-(4-bromophenoxy)phenyl]prop-2-enyl}acetohydroxamic acid] | > 24 |
| 70 | 4.3 | – | – | CC(=O)N(O)C(C)/C=C/c1cccc(Oc2ccc(C)cc2)c1 (stereo not drawn) [(E)-N-{1-Methyl-3-[3-(4-methylphenoxy)phenyl]prop-2-enyl}acetohydroxamic acid] | – |
| 160 | > 24 | 500 nM | – | CC(=O)N(O)C(C)/C=C/c1cccc(Oc2ccc(C(C)(C)C)cc2)c1 (stereo not drawn) [(E)-N-{1-Methyl-3-[3-(4-t-butylphenoxy)phenyl]prop-2-enyl}acetohydroxamic acid] | 2.4 |
| 930 | > 24 | 80 nM | > 1000 | CC(=O)N(O)C(C)/C=C/c1cccc(Oc2ccc(Cl)cc2)c1 (stereo not drawn) [(E)-N-{1-methyl-3-[3-(4-chlorophenoxy)phenyl]prop-2-enyl}acetohydroxamic acid] | > 24 |
| 1070 | 11.3 | 200 nM and 300 nM | – | CC(=O)N(O)C(C)/C=C/c1cccc(Oc2ccc(F)cc2)c1 (stereo not drawn) [(E)-N-{1-methyl-3-[3-(4-fluorophenoxy)phenyl]prop-2-enyl}acetohydroxamic acid] | 24.0 |

Further lines, the compound ahead of its results:

| Compound | Cmax [1] [ng/mL] | half-life [1] [h] | IC50 [3] | IC50 [4] [nM] | Time for stimulated LTB4 synthesis ex vivo to return to 50% of original value [2] [h] |
| --- | --- | --- | --- | --- | --- |
| CC(=O)N(O)C(C)/C=C/c1cccc(Oc2ccccc2)c1 (stereo not drawn) [(E)-N-[1-methyl-3-(3-phenoxyphenyl)prop-2-enyl]acetohydroxamic acid] | 460 | 10.7 | 80 nM | 1000 | 22.6 |
| CC(=O)N(O)C/C=C/c1cccc(Oc2ccccc2)c1 [(E)-N-[3-(3-phenoxyphenyl)prop-2-enyl]acetohydroxamic acid, reference compound] | – | – | – | 1000 | – |
| CC(=O)N(O)C(C)/C=C/c1cccc(Oc2ccc(F)cc2F)c1 (stereo not drawn) [(E)-N-{1-Methyl-3-[3-(2,4-difluorophenoxy)phenyl]prop-2-enyl}acetohydroxamic acid] | – | – | – | – | 20.7 |
| CC(=O)N(O)C(C)/C=C/c1cccc(Oc2cc(Cl)cc(Cl)c2)c1 (stereo not drawn) [(E)-N-{1-Methyl-3-[3-(3,5-dichlorophenoxy)phenyl]prop-2-enyl}acetohydroxamic acid] | 1900 | > 24 | 400 nM | – | > 24 |
| CC(=O)N(O)C(C)/C=C/c1cccc(Oc2cccc(C(F)(F)F)c2)c1 (stereo not drawn) [(E)-N-{1-Methyl-3-[3-(3-trifluoromethylphenoxy)phenyl]prop-2-enyl}acetohydroxamic acid] | 840 | > 24 | 110 nM | > 1000 | > 24 |
